Columns and labels:
Format in all cases: cell-based
[1] = system: regenerated shoots of Mentha arvensis variety Gomti; assay: Survival of in vitro raised shoots on menthol containing MS basal medium
Source text: (§1) The plant varieties analysed were Himalaya, Shivalik, Gomti, MAS-1, Kosi, Kalka of Mentha arvensis L. (2n=96). The suckers of these plant varieties were obtained from CIMAP's national gene bank for medicinal and aromatic plants for planting. The explant materials were collected from the field grown plants and surface sterilized by washing sequentially with 2% detergent, distilled water containing a few drops of Savlon (Johnson and Johnson, India), 0.1% acidified mercuric chloride and autoclaved distilled water before inoculation. About 1 cm long internodal pieces were inoculated in the MS medium (Murasighe and Skoog, 1962) containing vitamins, 100 mg l^−1 myo-inositol 3% wv^−1 sucrose, 1.5% wv^−1 agar (Difco), 0.5 .μg ml^−1 of an auxin, (NAA, 1-napthalene acetic acid) and 5 μg ml^−1 of a cytokinin (BAP, benzyl aminopurine) (Shasany et al, 1998). The cultures were grown at 25±2° C. and 400 to 600 lux light intensity with 16 h photoperiod. The regenerated shoots were separated 12 weeks after the explant inoculation for rooting and/or testing menthol tolerance.
(§2) The regenerated shoots (3-4 cm long, containing the apical bud and 2-3 nodes) separated after 12 weeks, were inoculated into MS basal medium with or without menthol (0 to 100 μg ml^−1). Concentration of menthol in each treatment was stepped up by 10 μg in a sequential manner. On each kind of these media, 5 independently regenerated shoots were inoculated per flask; 4 flasks were inoculated per replication and each treatment was replicated 5 times, making the number of flasks to 20 and number of explants to 100 for each concentration of menthol. The experiment was conducted in the completely randomized design (CRD) fashion. Cultures were incubated and maintained at 25±2° C. and 400-600 lux light intensity with 16-hour photoperiod. The wilting response and lethality in explants was recorded every 24 hours over a period of one week.

[2] = system: regenerated shoots of Mentha arvensis variety Kalka; assay: as above
Source text: as §1, §2

[3] = system: regenerated shoots of Mentha arvensis variety Shivalik; assay: as above
Source text: as §1, §2

[4] = system: calliclones (regenerated shoots) of Mentha arvensis cv. Himalaya; assay: Large scale stepwise screening of calliclones on menthol screening medium
Procedure: Large scale screening of clones was carried out in various batches by raising the calliclones as above. A total of 2850 shoots were transferred to the screening medium containing 50 μg ml^−1 menthol and incubated for 1 week. The surviving shoots from this medium were stepwise transferred to media containing higher concentrations of menthol ([…]). Finally the tolerant clones surviving at 70 μg ml^−1 menthol concentration were transferred individually to MS basal medium containing vitamins for rooting. The looted plantlets were subsequently hardened and transferred to pots in the glass house to raise sufficient planting material (sucker) for field experiments.
After 7 days of culture 1263 twigs survived at 50 μg ml^−1 concentration of menthol. These surviving shoots were subsequently transferred to the medium containing 60 μg ml^−1 menthol At this concentration 942 twig turned brown and died within 7 days. Finally, the 321 twigs which survived were inoculated into the screening medium containing 70 μg ml^−1 menthol. In His tertiary level screening, only 30 shoots survived (Table 5). These clones were inoculated into the rooting medium and after rooting transferred to pots in the glasshouse. The acclimatized selected plantlets from the glasshouse were transferred to the field for sucker production in the month of September 1997. In the month of January 1998, the suckers developed from each plant were field planted with 5 replicates using randomized block design. The plants grown with standard agronomic practices were harvested twice, first after 110 days of planting and subsequently 70 days after the first harvest. Ultimately, these 30 menthol tolerant clones were multiplied and grown in the field in replicated plots of 5 m×5 m sizes. The twigs of 30 clones from the replicated trials were rechecked for tolerant phenotypes at a concentration of 70 μg ml^−1 menthol wherein, these survived even after 7 days. These were also tested for survival at one step higher concentration of menthol (80 μg ml^−1). At this concentration of menthol only 5 clones (GRB 3, 14, 24, 27, 30) survived.
2. Large scale screening of the heterogeneous population of molecular variants were carried out by inoculating the regenerated independent clones into the screening medium i.e., MS basal agar containing 50 μg ml^−1 menthol followed by incubation for 1 week.
3. The surviving shoots from this medium were step-wise transferred to media containing higher concentrations of menthol (60 and 70 μg ml^−1). Finally the tolerant clones surviving at 70 μg ml^−1 menthol concentration (which cause 99% killing) are transferred individually to MS basal medium containing vitamins for rooting.

[5] = 100-ppm menthol, twenty-four hours after incubation
[6] = menthol 10 μg ml^−1, 20 shoots tested per replication
[7] = menthol 20 μg ml^−1, 20 shoots tested per replication
[8] = menthol 30 μg ml^−1, 20 shoots tested per replication
[9] = menthol 40 μg ml^−1, 20 shoots tested per replication
[10] = menthol 50 μg ml^−1, 20 shoots tested per replication
[11] = menthol 60 μg ml^−1, 20 shoots tested per replication
[12] = menthol 70 μg ml^−1, 20 shoots tested per replication
[13] = menthol 80 μg ml^−1, 20 shoots tested per replication
[14] = menthol 90 μg ml^−1, 20 shoots tested per replication
[15] = menthol 100 μg ml^−1, 20 shoots tested per replication

CC1CCC(C(C)C)C(O)C1 (stereo not drawn) [menthol]
lethality [1, 5]: 99%
Survival after 7 days Number ([1]; menthol 10 μg ml^−1): 20.0 ± 0.00
Survival after 24 hours Number [1, 6]: 20.0 ± 0.00
Survival after 7 days Number ([1]; menthol 20 μg ml^−1): 20.0 ± 0.00
Survival after 24 hours Number [1, 7]: 20.0 ± 0.00
Survival after 7 days Number ([1]; menthol 30 μg ml^−1): 20.0 ± 0.00
Survival after 24 hours Number [1, 8]: 20.0 ± 0.00
Survival after 7 days Number ([1]; menthol 40 μg ml^−1): 16.8 ± 0.48
Survival after 24 hours Number [1, 9]: 20.0 ± 0.00
Survival after 7 days Number ([1]; menthol 50 μg ml^−1): 7.0 ± 0.41
Survival after 24 hours Number [1, 10]: 16.0 ± 0.90
Survival after 7 days Number ([1]; menthol 60 μg ml^−1): 4.0 ± 0.57
Survival after 24 hours Number [1, 11]: 12.0 ± 0.71
Survival after 7 days Number ([1]; menthol 70 μg ml^−1): 0.4 ± 0.32
Survival after 24 hours Number [1, 12]: 6.0 ± 0.32
Survival after 7 days Number ([1]; menthol 80 μg ml^−1): 0.0 ± 0.00
Survival after 24 hours Number [1, 13]: 1.6 ± 0.31
Survival after 7 days Number ([1]; menthol 90 μg ml^−1): 0.0 ± 0.00
Survival after 24 hours Number [1, 14]: 1.0 ± 0.41
Survival after 7 days Number ([1]; menthol 100 μg ml^−1): 0.0 ± 0.00
Survival after 24 hours Number [1, 15]: 0.2 ± 0.26
lethality [2, 5]: 98%
Survival after 7 days Number ([2]; menthol 10 μg ml^−1): 20.0 ± 0.00
Survival after 24 hours Number [2, 6]: 20.0 ± 0.00
Survival after 7 days Number ([2]; menthol 20 μg ml^−1): 20.0 ± 0.00
Survival after 24 hours Number [2, 7]: 20.0 ± 0.00
Survival after 7 days Number ([2]; menthol 30 μg ml^−1): 20.0 ± 0.00
Survival after 24 hours Number [2, 8]: 20.0 ± 0.00
Survival after 7 days Number ([2]; menthol 40 μg ml^−1): 17.6 ± 0.66
Survival after 24 hours Number [2, 9]: 20.0 ± 0.00
Survival after 7 days Number ([2]; menthol 50 μg ml^−1): 13.8 ± 0.86
Survival after 24 hours Number [2, 10]: 19.4 ± 0.52
Survival after 7 days Number ([2]; menthol 60 μg ml^−1): 10.0 ± 0.91
Survival after 24 hours Number [2, 11]: 17.0 ± 0.41
Survival after 7 days Number ([2]; menthol 70 μg ml^−1): 4.0 ± 0.81
Survival after 24 hours Number [2, 12]: 11.0 ± 0.58
Survival after 7 days Number ([2]; menthol 80 μg ml^−1): 0.0 ± 0.00
Survival after 24 hours Number [2, 13]: 6.0 ± 0.82
Survival after 7 days Number ([2]; menthol 90 μg ml^−1): 0.0 ± 0.00
Survival after 24 hours Number [2, 14]: 3.0 ± 0.36
Survival after 7 days Number ([2]; menthol 100 μg ml^−1): 0.0 ± 0.00
Survival after 24 hours Number [2, 15]: 0.4 ± 0.26
lethality [3, 5]: 98%
Survival after 7 days Number ([3]; menthol 10 μg ml^−1): 20.0 ± 0.00
Survival after 24 hours Number [3, 6]: 20.0 ± 0.00
Survival after 7 days Number ([3]; menthol 20 μg ml^−1): 20.0 ± 0.00
Survival after 24 hours Number [3, 7]: 20.0 ± 0.00
Survival after 7 days Number ([3]; menthol 30 μg ml^−1): 20.0 ± 0.00
Survival after 24 hours Number [3, 8]: 20.0 ± 0.00
Survival after 7 days Number ([3]; menthol 40 μg ml^−1): 18.0 ± 0.41
Survival after 24 hours Number [3, 9]: 20.0 ± 0.00
Survival after 7 days Number ([3]; menthol 50 μg ml^−1): 11.0 ± 0.41
Survival after 24 hours Number [3, 10]: 18.0 ± 0.91
Survival after 7 days Number ([3]; menthol 60 μg ml^−1): 5.0 ± 0.71
Survival after 24 hours Number [3, 11]: 15.0 ± 0.11
Survival after 7 days Number ([3]; menthol 70 μg ml^−1): 2.0 ± 0.32
Survival after 24 hours Number [3, 12]: 8.0 ± 0.91
Survival after 7 days Number ([3]; menthol 80 μg ml^−1): 0.0 ± 0.00
Survival after 24 hours Number [3, 13]: 4.0 ± 0.41
Survival after 7 days Number ([3]; menthol 90 μg ml^−1): 0.0 ± 0.00
Survival after 24 hours Number [3, 14]: 2.0 ± 0.41
Survival after 7 days Number ([3]; menthol 100 μg ml^−1): 0.0 ± 0.00
Survival after 24 hours Number [3, 15]: 0.4 ± 0.32
twigs survived ([4]; menthol 50 μg ml^−1, after 7 days of culture, of a total of 2850 shoots): 1263
twigs which survived ([4]; menthol 60 μg ml^−1, of the 1263 survivors of 50 μg ml^−1): 321
twigs turned brown and died ([4]; menthol 60 μg ml^−1, within 7 days, of the 1263 survivors of 50 μg ml^−1): 942
killing ([4]; menthol 70 μg ml^−1): 99%
shoots survived ([4]; menthol 70 μg ml^−1, tertiary level screening of 321 twigs): 30
clones survived ([4]; menthol 80 μg ml^−1, twigs of the 30 selected tolerant clones from field trials): 5
